In the METLIN SMRT retention time set (Domingo-Almenara et al. 2019) one finds RP-LC retention time data, which are given here for 81 compounds.

This data set can be described thus: gradient 5% acetonitrile 3 min, to 50% in 2 min, to 85% in 15 min, held 3 min, 100 µL/min. The note with it: column: Zorbax Extend-C18 2.1 x 50 mm; eluents: water / acetonitrile, 0.1% formic acid. Put shortly:
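Mixtures of ~100 pure standards were chromatographed on a Zorbax Extend-C18 column (2.1 × 50 mm, 1.8 μm) at 100 μL/min using water and acetonitrile, each with 0.1% formic acid. Detection used a quadrupole time-of-flight mass spectrometer in positive and negative ionization mode, and data collection spanned 3 months. Retention time was obtained from adduct peaks picked computationally and each checked manually.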
In the case of `CCOC(=O)N1CCN(c2nc(F)c(F)c(S(=O)(=O)CCN3C(=O)CCC3=O)c2F)CC1`, the RP-LC retention time was 836 s.

As for `O=C1CCCCC(Cc2cccnc2)(C(=O)NCc2ccc3c(c2)OCO3)N1` (stereo unspecified), the RP-LC retention time was found to be 591 s. Under `CCCn1cc(C(=O)NCCCOCC)c(S(=O)(=O)N2CCN(c3ccccc3Cl)CC2)n1` stands 1090 s. For `CCOC(=O)c1ccc(NC(=O)N2CCC(CN3CCOCC3)CC2)cc1`, the RP-LC retention time was 610 s. For the compound `CCOCCCNC(=O)c1ccc2c(c1)nc1n2CCCCC1`, the RP-LC retention time amounted to 588 s. Then `O=C(CN1CC=C(c2cnn(-c3ccccc3)c2)CC1)N1CCN(c2ccccn2)CC1`, with 567 s; and `Cc1ccc(-c2cc(C(N)=O)[nH]n2)c(C)c1`, with 668 s; and `COc1cccc(NC(=O)C2c3ccccc3C(=O)N3CCc4cc(OC)c(OC)cc4C23)c1` (stereo unspecified), with 784 s. Then `CCCOc1nc2ccccc2nc1N1CCCC(C(=O)Nc2cccc(OC)c2)C1` (stereo unspecified), with 1260 s; and `Cc1cccc(CN2CCc3nc(C)n(CC(=O)Nc4ccc5c(c4)OCO5)c(=O)c3C2)c1`, with 575 s.

On to `CCC1CCCCN1C(=O)c1cnc2nc(C)ccc2c1Nc1ccc(OC)c(Cl)c1` (stereo unspecified), for which the RP-LC retention time was 668 s. Under `O=C(COc1ccccc1)Nc1nonc1NC(=O)COc1ccccc1` stands 854 s. `CNC(=O)C1CCCN(c2nc3ncn(CC(=O)NCc4cccc(OC)c4)c(=O)c3s2)C1` (stereo unspecified): the RP-LC retention time stood at 621 s. Then `CCCn1cnc2cc(CNC(=O)c3cc4ccccc4[nH]3)ccc21`, with 659 s; and `Cc1cccc(OCC(=O)Nc2nc(-c3ccccc3)cs2)c1`, with 1090 s. Under `Cc1ccc(CNC(=O)c2nc(-c3ccnc(N4CCCCC4)c3)no2)o1` stands 756 s; under `CCCc1noc(-c2ccnc(-n3ncc(C(=O)Nc4ccc(F)cc4)c3C)c2)n1`, 1120 s. As to `Cn1cc(C(=O)NCc2nc(-c3ccccc3)no2)nn1`, the RP-LC retention time was found to be 661 s. Then `O=C(Nc1ccc2c(c1)OCO2)c1cccc2c1CCN2C(=O)Nc1ccc(F)cc1`, with 929 s; and `Cc1ccc(S(=O)(=O)c2cnc3ccc(F)cc3c2N2CCOCC2)cc1C`, with 892 s; and `Cc1cc(C)n(CCNC(=O)Nc2cccs2)n1`, with 603 s. Consider `O=C(NCc1ccccc1Cl)c1nnc(-c2ccc(S(=O)(=O)N3CCCC3)cc2)o1`, for which the RP-LC retention time came to 934 s. Turning to `CCOCCCNC(=O)c1cc2n(n1)CCCN(Cc1ccccc1)C2=O`, the RP-LC retention time is 724 s. Under `CCC(C)Nc1nc(NC)nc(-n2cnc(SC)n2)n1` (stereo unspecified) stands 790 s; under `O=C1CC(c2noc(-c3ccc(-c4ccccc4)cc3)n2)CN1c1ccc(F)cc1` (stereo unspecified), 1200 s; under `CC(NC(=O)C1CCN(Cc2cn(C)c3ccccc23)CC1)c1ccc(F)cc1` (stereo unspecified), 699 s. Then `CCOc1nc2ccccc2nc1N1CCCC(C(=O)NCc2cccnc2)C1` (stereo unspecified), with 684 s.

In turn, `Cn1cc2c3c(cccc31)CN(C(=O)C1CCC1)CC2` gave an RP-LC retention time of 878 s. With `Cc1ccc(C)c(Nc2nc(-c3ccncc3)nc3ccccc23)c1`, the RP-LC retention time was 772 s. `Cc1ccccc1S(=O)(=O)N(C)CC1CCOCC1`: the RP-LC retention time was 837 s. For `COc1ccc(F)cc1S(=O)(=O)N1CCN(c2c(C)nn(-c3ccccc3)c2C)CC1`, the RP-LC retention time came out at 965 s. Compound `CCOC(=O)c1ccc(NC(=O)N(Cc2cc(=O)[nH]c3ccccc23)C(C)C)cc1` returned an RP-LC retention time of 772 s. `CCOc1ccc(-c2csc3c(=O)n(Cc4ccccn4)cnc23)cc1OCC` had an RP-LC retention time of 865 s.

In the case of `O=C(NC1CC1)c1ccc(OCC2CCN(C(=O)Cc3ccc(Cl)cc3)CC2)cc1`, the RP-LC retention time turned out to be 868 s. `CSc1ccc(CNC(=O)C2c3ccccc3CCN2C(C)=O)cc1` (stereo unspecified) had an RP-LC retention time of 790 s. Then `CC(=O)N(Cc1nn(C)c2c1CN(S(=O)(=O)c1ccc(F)cc1F)CC2)c1ccccc1`, with 808 s. For `Cc1ccc(-c2csc(NC(=O)COc3cc(C)ccc3C(C)C)n2)cc1`, the RP-LC retention time was 992 s. Compound `Cc1csc(C(=O)NC2CNC(=O)C2)c1` (stereo unspecified) came in with an RP-LC retention time of 572 s. In the case of `CCCC(=O)NCc1nc(-c2ccccc2Cl)no1`, the RP-LC retention time came out at 755 s. Regarding `O=C(Cn1c(=O)n(Cc2cccnc2)c(=O)c2ncccc21)c1ccc2c(c1)OCCO2`, the RP-LC retention time is 554 s. Then `COC(=O)c1c(NCC(C)C)c2cc(F)ccc2[nH]c1=O`, with 734 s.

Compound `COC(=O)C1=C(NC(=O)c2cccc(F)c2)CCS1` showed an RP-LC retention time of 964 s. Then `CCn1c(C(=O)N2CCN(c3ccccn3)CC2)cc2sccc21`, with 636 s. `CCn1c(CN2CCN(S(C)(=O)=O)CC2)nc2cc(NC(=O)C(C)C)ccc21` showed an RP-LC retention time of 612 s. Then `COc1ccc(N2CC(c3noc(-c4ccc(OC)c(F)c4)n3)CC2=O)cc1` (stereo unspecified), with 856 s; and `CS(=O)(=O)NC(=O)c1cc(Cl)c(COc2ccc(Cl)c(Cl)c2)cc1F`, with 1170 s; and `Cc1ccc2ncn(C3CCN(C(=O)Nc4cc(Cl)ccc4C)CC3)c(=O)c2c1`, with 911 s. Under `c1coc(-c2nc(-c3ccc4c(c3)nnn4CCN3CCCCC3)no2)c1` stands 652 s; under `COCCCNC(=O)C(C)n1nc(C)c2c(C)n(-c3ccccc3)nc2c1=O` (stereo unspecified), 686 s. `CCCc1cc(N2CCN(C(=O)c3ccco3)CC2)nc2nnc(CC)n12`: the RP-LC retention time turned out to be 617 s. Turning to `O=C(Cn1nc2c3sc(N4CCCCC4)nc3ncn2c1=O)Nc1ccc(Br)cc1`, the RP-LC retention time amounted to 848 s. Under `CC(=O)N1C[C@@H](C(=O)NCc2cccs2)[C@H](c2nc(C)no2)C1` stands 630 s; under `O=C(C1CCOC1)N1CCC(N(Cc2ccccc2)C2CCOCC2)CC1` (stereo unspecified), 572 s. Then `CCOC(=O)N1CCN(S(=O)(=O)c2c[nH]c(=O)[nH]c2=O)CC1`, with 582 s; and `Cc1ccc(C(CNC(=O)c2cc(=O)c3ccccc3o2)N(C)C)cc1` (stereo unspecified), with 626 s. Under `Cc1[nH]nc2ccc(-c3cncc(OC[C@@H](N)Cc4ccccc4)c3)cc12` stands 624 s; under `CCc1nc2ccccc2c(=O)n1Cc1noc(-c2ccc(OC)c(OC)c2)n1`, 894 s. As for `Cc1ccc(NC(=O)CN2CCc3[nH]c4c(C)ccc(F)c4c(=O)c3C2)cc1F`, the RP-LC retention time was 638 s.

`Cc1cccc(CC(=O)N2C[C@@H]3C[C@H](NC(=O)c4cccs4)[C@H]2C3)c1` yielded an RP-LC retention time of 787 s. Under `Cc1ccc2nc(C(=O)NCc3ccc(F)cc3F)cn2c1` stands 668 s; under `Cc1ccc(NC(=O)Cc2c(C)nn(-c3nc(-c4ccc(C)cc4)cs3)c2C)cc1`, 1270 s. Then `Cc1nc2c(sc3nc(-c4ccccc4)ccc32)c(=O)n1CC(=O)Nc1cc(F)cc(F)c1`, with 1270 s. Then `CCS(=O)(=O)c1ccc(-c2ccc(NS(C)(=O)=O)cc2)nn1`, with 643 s. For `CC(C)(C)C1CCc2[nH]nc(C(N)=O)c2C1` (stereo unspecified), the RP-LC retention time was determined as 745 s. `C=CCNC(=O)c1cn(CCC)nc1S(=O)(=O)N1CCN(c2ccccc2OCC)CC1` came in with an RP-LC retention time of 1030 s. Under `CC(NC(=O)Cc1nnc(-c2cnccn2)o1)c1ccc(F)cc1` (stereo unspecified) stands 681 s; under `Cc1nc(-c2cnccn2)nc2c1CCC(=O)N2Cc1ccccc1F`, 726 s. `CN1C(=O)c2ccccc2Oc2ccc(C(=O)N3CCOCC3)cc21` displayed an RP-LC retention time of 675 s.

Compound `CC(=O)Nc1ccc(SCc2ccccn2)nn1` displayed an RP-LC retention time of 527 s.

Compound `Cc1cc(Cl)ccc1S(=O)(=O)N1C[C@H](F)C[C@@H]1C(=O)N1CCOCC1` returned an RP-LC retention time of 762 s. Compound `CCS(=O)(=O)Nc1cccc(C(=C2CCCCC2)c2cnc[nH]2)c1` displayed an RP-LC retention time of 738 s. Consider `COc1ccccc1NC(=O)N1CCC(CNC(=O)c2ccccc2C(F)(F)F)CC1`, for which the RP-LC retention time came to 763 s.

Take `COC(=O)c1ccc(NC(=O)N(C)Cc2cc(=O)[nH]c3ccccc23)cc1`: the RP-LC retention time is 694 s. Then `COc1ccc(NS(=O)(=O)c2cc(-c3c(C)noc3NC(C)=O)ccc2OC)c(OC)c1`, with 724 s; and `O=C(NC1CC1)[C@@H]1C[C@H](Oc2cccnc2)CN1C(=O)c1ccco1`, with 538 s. For `Cc1sc(NC(=O)Cn2c(=O)sc3ccccc32)nc1-c1ccccc1`, the RP-LC retention time amounted to 980 s. Under `COCCOC1CN(C2CCN(C(=O)c3ccc(C)s3)CC2)C12CCCCC2` (stereo unspecified) stands 656 s; under `Cc1cccc2nnc(N3CCCC(C(=O)N4CCN(c5ccccc5)CC4)C3)n12` (stereo unspecified), 614 s.

As to `COc1ccc(NC(=O)C2CC(=O)N(c3ccc4c(c3)CCN4C(=O)C3CC3)C2)c(C)c1` (stereo unspecified), the RP-LC retention time was 740 s. Then `COc1ccc(NC(=O)C2CCN(c3cc(N4CCCCC4)ncn3)CC2)c(OC)c1`, with 694 s; and `O=C(Nc1c(C(=O)NCCc2ccccc2)[nH]c2ccc(F)cc12)c1ccccc1`, with 998 s.
